This note sets out measurements from US20220015355A1, “NOVEL CARRIER FLUIDS FOR LIQUID FUNGAL SPORE FORMULATIONS” (priority 2018, published 2022).

In series [1] the test system is P. lilacinum strain 251 spores. Briefly: spore viability (germination rate on agar) of P. lilacinum spores in carrier fluid after storage at 30° C. The class given is cell-based, Purpureocillium lilacinum. Conditions: for decline in spore viability at day 1 and after storage: text summary of Table I, fluids not within the scope of the invention. As to the method:
(§1) 3 g of P. lilacinum strain 251 pure spore powder were transferred into a formulation vessel (IKA Type DT-20 mixing vessel with dispersion tool for Ultra Turrax) using a sterile spoon. 12 mL of fluid were added into the respective formulation vessel and dispersed using ultra turrax tube drive control for 1 min at 3000 rpm; change direction after 30 sec. After this 2.8 mL were transferred in four sample bottles (Wheaton Serum vial, Type I) leaving little headspace and closed tight using crimpneck caps (Macherey—Nagel type N 13) Afterwards all sample bottles were transferred to an incubator set at 30° C. and stored for a given time.
(§2) In regular intervals a sample was retrieved from the storage location and analyzed for spore viability. Therefore the original samples were thoroughly homogenized. Aliquots of 0.25 g or […] of each sample are transferred into 50 mL falcon tubes. The tubes were filled up to 25 g using a sterile aqueous solution containing 2% Tween 80 and homogenized by vortexing to achieve the first dilution step (1:100 dilution). This dilution is used for further dilution and spotting on agar.
(§3) For evaluation of spore germination rate prepare a 1:30000 dilution based on the 1:100 dilution achieved by multiple automated dilution (pipetting robot, 96 well plate). Afterwards 12×12 cm agar plates are taken and spotted with 10 times […] of each sample using an automated 12-Channel pipet. Wait until liquid is soaked up by agar and transfer agar plate to an incubator and incubate at 25° C. for 17 hours. Open the plate and place it under the microscope. Randomly choose one area per spot and record the number of germinated and non-germinated spores that are within the designated field. At least 200 spores per sample need to be evaluated. If needed count more than one field per spot.

The subject of series [2] is Isaria fumosorosea spores. Nature of the series: spore viability of Isaria fumosorosea spores in carrier fluid after storage at 30° C., Method 1 (germination on agar). The format is cell-based. As to the method:
as §1, with “Method 1: 1.5 g” for “3 g”, “of Isaria fumosorosea” for “of P. lilacinum strain 251”, “spoon. 13.5” for “spoon. 12”
as §2
For evaluation of spore germination rate a 1:15000 dilution based on the 1:100 dilution achieved by multiple automated dilution (pipetting robot, 96 well plate) was prepared. Afterwards 12×12 cm agar plates were taken and spotted with 10 times 5 μL of each sample using an automated 12-Channel pipet. After all liquid is soaked up by agar the agar plates were incubated at 23° C. for 16 hours.

In series [3] the test system is Beauveria Bassiana spores. Briefly: spore viability (germination rate on agar) of Beauveria bassiana spores in carrier fluid after storage at 30° C. The class given is cell-based. The following applies: for decline in spore viability after storage under given conditions: Table III, fluids not within the scope of the invention. As to the method: as §1, with “1.5 g” for “3 g”, “of Beauveria Bassiana” for “of P. lilacinum strain 251”, “spoon. 13.5” for “spoon. 12”
as §2
as §3, with “1:15000” for “1:30000”, “20°” for “25°”

The test system of series [4] is Isaria fumosorosea spores. Nature of the series: spore viability of Isaria fumosorosea spores in carrier fluid after storage, Method 2 (flow cytometry). The format is cell-based. As to the method: Method 2: 0.5 g of Isaria fumosoresea pure spore powder were transferred into an Erlenmeyer flask using a sterile spoon. 24.5 mL of fluid were dispersed using Ultra-Turrax (IKA; Type T 25 D) for 1 min at 3,000 rpm. After this, 2.0 mL were transferred in 20 sample bottles (Wheaton Serum vial, Type I) leaving little headspace and closed tight using crimpneck caps (Macherey—Nagel type N 13). Afterwards all sample bottles were transferred to an incubator set at 30° C. and stored for a given time.
In regular intervals a sample was retrieved from the storage location and analyzed for spore viability. For this purpose, the original samples were thoroughly homogenized. Aliquots of 0.5 g of each sample were transferred into 100 mL-Erlenmeyer flask. The flasks were filled up to 50 g using a sterile aqueous solution containing 0.1% Break Thru® 5240 (Evonik, Industries) and homogenized on a magnetic stirrer (Thermo Fisher Scientific: Cimarec™) at least for 15 min with 750 rpm to achieve the first dilution step (1:100 dilution). This dilution was used for further dilution.
Not all samples mixed well or mixed at all in 0.1% Break Thru 5240. For these samples, 500 μL Neo-wett (Kwizda Agro GmbH) and/or a small amount (knife tip) Metaupon®-OMT (LEUNA Tenside GmbH) were also added to the aqueous solution.
After homogenization 1 mL were transferred into a 1.5 mL tube and were centrifuged for 15 min at 14,000 rpm (Thermo Fisher Scientific, Type Megafuge 8R). The supernatant (=upper phase) was discarded by using a pipette. The tubes were filled up to 1 mL using a sterile aqueous solution containing 0.1% Neo-wett and homogenized by vortexing.
To assess fungal viability, a method based on flow cytometry was used.

Series [5] concerns Penicillium bilaii (ATCC 20851) spores. Nature of the series: spore viability (germination rate on agar) of Penicillium bilaii spores in carrier fluid after storage at 30° C. The format is cell-based. As to the method:
as §1, with “1.5 g” for “3 g”, “of Penicillium bilaii (ATCC 20851)” for “of P. lilacinum strain 251”, “spoon. 13.5” for “spoon. 12”
as §2
as §3, with “1:15000” for “1:30000”, “20°” for “25°”

Setting [6] is: P. lilacinum strain 251 in the liquid, day 1.
Setting [7] is: I. fumosorosea, Method 1, day 1.
Where [8] appears, read: Method 1, storage at 30° C., 27 d.
[9] abbreviates: Method 1, storage at 30° C., 210 d.

Where two headings read alike, the source gives them in different places. Marks after values point to notes of the source that are not given here.

Turning to `CCCCOCCOCCO` [Butylcarbitol, diethylenglycol monobutylether, reference compound], the “spore viability [%] at day 1” value came out at 92.7% in series [1] (setting [6]); 19.1% in series [2] (setting [7]); 53.3% in series [3] (Beauveria bassiana, day 1). In addition, in series [1] (storage at 30° C., 12-15 d), the “spore viability [%] after 2 w (12-15 d)” value is recorded as 62.1%. Further, the “spore viability [%] after 1 m (27-28 d)” value in series [1] (storage at 30° C., 27-28 d) is 10.8%. Further, the “spore viability [%] after 2 m (51-55 d)” value in series [1] (storage at 30° C., 51-55 d) is recorded as 3.2%. Also, the “spore viability [%] after 7 m (210 d)” value in series [1] (storage at 30° C., 210 d) amounted to 0.6%; in series [2] (setting [9]), 2.4%. Moreover, in series [1], the “decline in spore viability at day 1 and after storage” value is “steep decline in spore viability”. In series [2] (setting [8]), the “spore viability [%] after 1 m (27 d)” value came out at 0.5%. Further, in series [3], the “decline in spore viability after storage under given conditions” value is on record as “steep decline in spore viability”. In addition, the “spore viability [%] after 5 w (35 d)” value in series [3] (storage at 30° C.) worked out at 0.8%.

Consider `COC(C)COC(C)CO` (stereo not drawn) [Dowanol DPM, Dipropylene Glycol monomethyl ether], for which, in series [1] (setting [6]), the “spore viability [%] at day 1” value was found to be 91.0%. The “spore viability [%] after 2 w (12-15 d)” value in series [1] (storage at 30° C., 12-15 d) is listed as 95.3%. Besides, in series [1] (storage at 30° C., 27-28 d), the “spore viability [%] after 1 m (27-28 d)” value amounted to 93.3%. Further, the “spore viability [%] after 2 m (51-55 d)” value in series [1] (storage at 30° C., 51-55 d) is on record as 74.7%. Also, the “spore viability [%] at day 1” value in series [3] (Beauveria bassiana, day 1) stood at 83.9%. In series [3] (storage at 30° C.), the “spore viability [%] after 2 w (14 d)” value was 61.0% and the “spore viability [%] after 5 w (35 d)” value is recorded as 36.6%.

For the molecule `COC(C)COC(C)COC(C)=O` (stereo not drawn) [Dowanol DPMA, Dipropylene glycol methyl ether acetate], the “spore viability [%] at day 1” value in series [1] (setting [6]) was determined as 99.1%; in series [2] (setting [7]), 87.7%. In series [1] (storage at 30° C., 87-92 d), the “spore viability [%] after 3 m (87-92 d)” value is 35.7%. Besides, the “spore viability [%] after 5 w (35 d)” value in series [1] (storage at 30° C.) is given as 93.0%. Also, the “spore viability [%] after 1 m (27 d)” value in series [2] (setting [8]) worked out at 63.6%. Besides, the “spore viability [%] after 7 m (210 d)” value in series [2] (setting [9]) amounted to 31.4%.

In the case of `CC(=O)OCC(C)OC(C)=O` (stereo not drawn) [Dowanol PGDA, Propylenglycol Diacetat], in series [1] (Purpureocillium lilacinum), the “spore viability [%] after 3 m (87-92 d)” value is reported as 88.4%; the “spore viability after storage for 2 or 3 months, respectively” value was not below 80%; the “spore viability [%] after 5 w (35 d)” value is listed as 98.2%. Also, in series [1] (Purpureocillium lilacinum, 1 d), the “spore viability [%] at day 1” value came out at 98.8%. In addition, the “spore viability [%] at day 1” value in series [4] (Isaria fumosorosea, 1 d) was found to be 97.0%. Moreover, the “spore viability [%] after 1 m (27 d)” value in series [4] (Isaria fumosorosea, 27 d) stood at 53.0%. Moreover, in series [5] (Penicillium bilaii), the “spore viability [%] 3 m@30° C. (83-85 d)” value is given as 36.4%, the “spore viability [%] 6 w@30° C. (41-43 d)” value worked out at 69.3% and the “spore viability [%] initial (1-2 d)” value is listed as 93.6%. The “spore viability [%] at day 1” value in series [3] (Beauveria bassiana, 1 d) is on record as 90.6%. The “spore viability [%] after 3 w (21 d)” value in series [3] (Beauveria bassiana, 21 d) came to 51.6%.

For the molecule `COCCOCCOCCO` [Methoxytriglycol, Triethylenglycol monomethyl ether, reference compound], in series [1] (Purpureocillium lilacinum), the “spore viability [%] after 3 m (87-92 d)” value is reported as 19.9% and the “spore viability [%] after 5 w (35 d)” value is 55.3%. Besides, the “spore viability [%] at day 1” value in series [1] (Purpureocillium lilacinum, 1 d) stood at 83.3%. Also, the “decline in spore viability at day 1 and after storage” value in series [1] is reported as “steep decline in spore viability”. Moreover, in series [5] (Penicillium bilaii), the “spore viability [%] 3 m@30° C. (83-85 d)” value is listed as 30.3%, the “spore viability [%] 6 w@30° C. (41-43 d)” value worked out at 43.1% and the “spore viability [%] initial (1-2 d)” value was determined as 74.3%. Besides, the “spore viability [%] at day 1” value in series [3] (Beauveria bassiana, 1 d) is reported as 79.7%. In series [3] (Beauveria bassiana), the “spore viability [%] after 2 w (14 d)” value is on record as 12.3% and the “spore viability [%] after 5 w (35 d)” value worked out at 1.5%. The “decline in spore viability after storage under given conditions” value in series [3] is recorded as “steep decline in spore viability”.

With `COCC(C)OCC(C)OC` (stereo not drawn) [Proglyde DMM, Dipropylene glycol dimethyl ether], in series [1] (Purpureocillium lilacinum), the “spore viability [%] after 3 m (87-92 d)” value was found to be 75.4% and the “spore viability [%] after 5 w (35 d)” value worked out at 96.0%. Further, in series [1] (Purpureocillium lilacinum, 1 d), the “spore viability [%] at day 1” value was 98.8%. In series [5] (Penicillium bilaii), the “spore viability [%] 3 m@30° C. (83-85 d)” value was determined as 10.5%, the “spore viability [%] 6 w@30° C. (41-43 d)” value came to 29.6% and the “spore viability [%] initial (1-2 d)” value stood at 54.6%. In addition, the “spore viability [%] at day 1” value in series [3] (Beauveria bassiana, 1 d) came to 88.4%. Also, in series [3] (Beauveria bassiana), the “spore viability [%] after 2 w (14 d)” value is 48.0% and the “spore viability [%] after 5 w (35 d)” value worked out at 21.8%.

Consider “Polyethyleneglycol-200 monooleate [Radiasurf 7402]”, for which, in series [1], the “spore viability [%] after 1 m (27-28 d)” value is 64.8%, the “spore viability [%] after 2 m (51-55 d)” value came out at 34.7%, the “spore viability [%] after 2 w (12-15 d)” value turned out to be 83.6% and the “spore viability [%] at day 1” value was determined as 96.7%. Also, in series [2], the “spore viability [%] after 1 m (27 d)” value worked out at 11.6%, the “spore viability [%] after 7 m (210 d)” value is on record as 1.1% and the “spore viability [%] at day 1” value worked out at 92.5%. In addition, in series [4], the “spore viability [%] after 1 m (27 d)” value was determined as 15.8%, the “spore viability [%] after 2 w (~14 d)” value was determined as 20.5% and the “spore viability [%] at day 1” value was determined as 89.9%.

For the molecule Tween 85, in series [4], the “spore viability [%] after 1 m (27 d)” value is reported as 98.0%, the “spore viability [%] after 6 months” value is 96.1*** %, the “spore viability [%] at day 1” value amounted to 98.9% and the “spore viability after storage for 7 m at 30° C.” value is recorded as not below 50%. Also, in series [5], the “spore viability [%] after 2 months” value is listed as 92.0$ % and the “spore viability [%] initial (1-2 d)” value is reported as 99.0%.
